Results reported in ChEMBL document CHEMBL3797140, “Acridin-3,6-dialkyldithiourea hydrochlorides as new photosensitizers for photodynamic therapy of mouse leukemia cells” (Bioorg Med Chem, 2016).
Active and inactive are the calls of the source. The calls are words filed in the database; no cut-off is given here.

What was measured:
[1] = tested on: L1210; test: Induction of apoptosis in mouse L1210 cells at 0.5 uM preincubated for 1 hr followed by 1.05 J/cm2 UV-A irradiation measured after 5 hrs by Annexin Red based flow cytometry; type: functional
[2] = Drug uptake in lysosome of mouse L1210 cells at 2 uM preincubated with […] followed by compound exposure for 1 hr followed by 1.05 J/cm2 UV-A irradiation by LysoTracker staining-based flow cytometry; type: ADME, cell-based; conditions: l1210, 1 h
[3] = tested on: L1210; test: Induction of cell cycle arrest in mouse L1210 cells assessed as accumulation at sub-G0 phase at 0.5 uM preincubated for 1 hr measured after 24 hrs by propidium iodide staining-based flow cytometry in absence of light (reference value: 16.6 +/- 0.4%); conditions: l1210, 24 h
[4] = Drug uptake in lysosome of mouse L1210 cells at 2 uM preincubated with 10.5 nM bafilomycin A1 followed by compound exposure for 1 hr followed by 1.05 J/cm2 UV-A irradiation by LysoTracker staining-based flow cytometry; type: ADME, cell-based; conditions: l1210, 1 h
[5] = tested on: L1210; test: Induction of apoptosis in mouse L1210 cells assessed as caspase 3 activation at 0.5 uM preincubated for 1 hr measured after 8 hrs by Western blot method in absence of light; type: cell-based; conditions: l1210, 8 h
[6] = tested on: L1210; test: Induction of ROS generation in mouse L1210 cells at 0.5 uM preincubated for 1 hr followed by 1.05 J/cm2 UV-A irradiation by fluorescence microscopy in presence of trolox; type: functional, cell-based
[7] = tested on: L1210; test: Induction of necrosis in mouse L1210 cells at >= 1 uM preincubated for 1 hr followed by 1.05 J/cm2 UV-A irradiation; type: functional
[8] = tested on: L1210; test: Phototoxicity in mouse L1210 cells at 1 uM preincubated for 1 hr followed by 1.05 J/cm2 UV-A irradiation measured after 24 hrs by lactate dehydrogenase leakage assay; type: functional, cell-based
[9] = tested on: L1210; test: Induction of cell cycle arrest in mouse L1210 cells assessed as accumulation at sub-G0 phase at 1 uM preincubated for 1 hr followed by 1.05 J/cm2 UV-A irradiation measured after 24 hrs by propidium iodide staining-based flow cytometry (reference value: 16.8 +/- 0.6%); type: functional
[10] = tested on: L1210; test: Induction of apoptosis in mouse L1210 cells assessed as caspase 9 activation at 1 uM preincubated for 1 hr followed by 1.05 J/cm2 UV-A irradiation measured after 4 to 6 hrs by Western blot method; type: functional, cell-based
[11] = tested on: L1210; test: Induction of cell cycle arrest in mouse L1210 cells assessed as accumulation at sub-G0 phase at 1 uM preincubated for 1 hr followed by 1.05 J/cm2 UV-A irradiation measured after 4 hrs by propidium iodide staining-based flow cytometry (reference value: 16.8 +/- 0.6%); type: functional
[12] = tested on: L1210; test: Induction of cytomorphological changes in mouse L1210 cells at 0.5 uM preincubated for 1 hr measured after 6 to 24 hrs by Hoechst 33342 staining-based fluorescence microscopy in the absence of light; type: cell-based; conditions: l1210, 0.5 µM
[13] = Drug uptake in nucleus of mouse L1210 cells at 2 uM preincubated for 1 hr followed by 1.05 J/cm2 UV-A irradiation by SytoRed staining-based flow cytometry; type: ADME, cell-based; conditions: l1210, 2 µM
[14] = tested on: L1210; test: Induction of cell cycle arrest in mouse L1210 cells assessed as accumulation at G1 phase at 0.5 and 1 uM preincubated for 1 hr followed by 1.05 J/cm2 UV-A irradiation measured after 24 hrs by propidium iodide staining-based flow cytometry (reference value: 16.8 +/- 0.6%); type: functional
[15] = tested on: L1210; test: […] in mouse L1210 cells at 1 uM preincubated for 1 hr followed by 1.05 J/cm2 UV-A irradiation measured after 24 hrs by lactate dehydrogenase leakage assay; type: cell-based; conditions: l1210, 24 h
[16] = Drug uptake in mitochondria of mouse L1210 cells at 2 uM preincubated for 1 hr followed by 1.05 J/cm2 UV-A irradiation by MitoRed staining-based flow cytometry; type: ADME; conditions: l1210, 2 µM
[17] = tested on: L1210; test: Induction of cell cycle arrest in mouse L1210 cells assessed as accumulation at sub-G0 phase at 0.5 uM preincubated for 1 hr followed by 1.05 J/cm2 UV-A irradiation measured after 4 hrs by propidium iodide staining-based flow cytometry (reference value: 16.8 +/- 0.6%); type: functional
[18] = Dark toxicity against mouse NIH/3T3 cells assessed as cell viability after 48 hrs by MTT assay; type: cell-based, NIH3T3
[19] = tested on: L1210; test: Induction of apoptosis in mouse L1210 cells assessed as late apoptotic cells at 0.5 uM preincubated for 1 hr followed by 1.05 J/cm2 UV-A irradiation measured after 24 hrs by Hoechst 33342 and propidium iodide staining-based fluorescence microscopy; type: functional, cell-based
[20] = tested on: L1210; test: Induction of cell cycle arrest in mouse L1210 cells assessed as accumulation at sub-G0 phase at 1 uM preincubated for 1 hr measured after 24 hrs by propidium iodide staining-based flow cytometry in absence of light (reference value: 16.6 +/- 0.4%); conditions: l1210, 24 h
[21] = tested on: L1210; test: Decrease in ATP level in mouse L1210 cells at 0.5 uM preincubated for 1 hr followed by 1.05 J/cm2 UV-A irradiation measured after 6 hrs by luciferase reporter assay; type: functional; design: scale not given: the % may be the effect or the level left
[22] = tested on: L1210; test: Drug uptake in mouse L1210 cells at 1 uM after 15 mins to 6 hrs by fluorescence microscopy; type: ADME, cell-based; conditions: l1210, 1 µM
[23] = Cytotoxicity against human HL60 cells after 48 hrs by MTT assay; type: functional, cell-based; conditions: HL-60, 48 h
[24] = tested on: L1210; test: Induction of cytomorphological changes in mouse L1210 cells assessed as cell shrinkage at 0.5 uM preincubated for 1 hr followed by 1.05 J/cm2 UV-A irradiation measured after 6 to 24 hrs by Hoechst 33342 staining-based fluorescence microscopy; type: functional
[25] = Drug uptake in lysosome of mouse L1210 cells at 2 uM preincubated for 1 hr followed by 1.05 J/cm2 UV-A irradiation by LysoTracker staining-based flow cytometry; type: ADME, cell-based; conditions: l1210, 2 µM
[26] = Drug uptake in plasma membrane of mouse L1210 cells at 1 uM after 1 to 6 hrs by fluorescence microscopy; type: ADME, cell-based; conditions: l1210, 1 µM
[27] = Dark toxicity against mouse L1210 cells assessed as cell viability after 48 hrs by MTT assay; type: cell-based
[28] = tested on: L1210; test: Phototoxicity against mouse L1210 cells assessed as cell viability preincubated for 1 hr followed by 1.05 J/cm2 UV-A irradiation measured after 48 hrs by MTT assay; type: functional, cell-based; conditions: L1210, light or radiation study
[29] = tested on: L1210; test: Induction of cell cycle arrest in mouse L1210 cells assessed as accumulation at sub-G0 phase at 0.5 uM preincubated for 1 hr measured after 4 hrs by propidium iodide staining-based flow cytometry in absence of light (reference value: 16.6 +/- 0.4%); conditions: l1210, 4 h
[30] = tested on: L1210; test: Phototoxicity in mouse L1210 cells at 0.5 uM preincubated for 1 hr followed by 1.05 J/cm2 UV-A irradiation measured after 6 hrs by lactate dehydrogenase leakage assay; type: functional, cell-based
[31] = tested on: L1210; test: Induction of apoptosis in mouse L1210 cells assessed as decrease in Bcl2 level at 0.5 uM preincubated for 1 hr measured after 8 hrs by Western blot method in absence of light; type: cell-based; conditions: l1210, 8 h
[32] = tested on: L1210; test: Induction of cell cycle arrest in mouse L1210 cells assessed as accumulation at sub-G0 phase at 1 uM preincubated for 1 hr measured after 4 hrs by propidium iodide staining-based flow cytometry in absence of light (reference value: 16.6 +/- 0.4%); conditions: l1210, 4 h
[33] = tested on: L1210; test: Induction of apoptosis in mouse L1210 cells assessed as Bax level at 0.5 uM preincubated for 1 hr measured after 8 hrs by Western blot method in absence of light; type: cell-based; conditions: l1210, 8 h
[34] = tested on: L1210; test: Phototoxicity against mouse L1210 cells assessed as cell viability preincubated with 10 nM chloroquine followed by compound exposure for 1 hr followed by 1.05 J/cm2 UV-A irradiation measured after 48 hrs by MTT assay in presence of pepstatin A; type: functional, cell-based
[35] = Induction of ROS generation measured after UV-A irradiation by spin trapping agent DMPO based EPR spectroscopy; type: physicochemical
[36] = tested on: L1210; test: Induction of necrosis in mouse L1210 cells at 0.5 uM preincubated for 1 hr followed by 1.05 J/cm2 UV-A irradiation measured after 5 hrs by Annexin Red based flow cytometry; type: functional
[37] = tested on: L1210; test: Phototoxicity against mouse L1210 cells assessed as cell viability preincubated for 1 hr followed by 1.05 J/cm2 UV-A irradiation measured after 48 hrs by MTT assay in presence of pepstatin A; type: functional, cell-based
[38] = tested on: L1210; test: Induction of autophagy in mouse L1210 cells assessed as accumulation of LC3BII at 0.5 uM preincubated for 1 hr measured after 8 hrs by Western blot method in absence of light; type: cell-based; conditions: l1210, 8 h
[39] = tested on: L1210; test: Induction of cell cycle arrest in mouse L1210 cells assessed as accumulation at sub-G0 phase at 0.5 uM preincubated for 1 hr followed by 1.05 J/cm2 UV-A irradiation measured after 24 hrs by propidium iodide staining-based flow cytometry (reference value: 16.8 +/- 0.6%); type: functional
[40] = tested on: L1210; test: Induction of cytomorphological changes in mouse L1210 cells assessed as condensed chromatin at 0.5 uM preincubated for 1 hr followed by 1.05 J/cm2 UV-A irradiation measured after 6 to 24 hrs by Hoechst 33342 staining-based fluorescence microscopy; type: functional, cell-based
[41] = Induction of ROS generation measured 2 mins after UV-A irradiation by spin trapping agent DMPO based EPR spectroscopy; type: physicochemical
[42] = tested on: L1210; test: Induction of DNA fragmentation in mouse L1210 cells at 0.5 to 1 uM preincubated for 1 hr followed by 1.05 J/cm2 UV-A irradiation measured after 6 hrs by agarose gel electrophoresis; type: functional, cell-based
[43] = tested on: L1210; test: Induction of autophagy in mouse L1210 cells assessed as accumulation of LC3BII at 0.5 to 1 uM preincubated for 1 hr followed by 1.05 J/cm2 UV-A irradiation measured after 4 to 6 hrs by Western blot method; type: functional, cell-based
[44] = Phototoxicity against mouse NIH/3T3 cells assessed as cell viability preincubated for 1 hr followed by 1.05 J/cm2 UV-A irradiation measured after 48 hrs by MTT assay; type: cell-based; conditions: NIH3T3, light or radiation study
[45] = Drug uptake in cytosol of mouse L1210 cells at 1 uM after 1 to 6 hrs by fluorescence microscopy; type: ADME, cell-based
[46] = tested on: L1210; test: Induction of apoptosis in mouse L1210 cells assessed as caspase 3 activation at 0.5 to 1 uM preincubated for 1 hr followed by 1.05 J/cm2 UV-A irradiation measured after 4 to 6 hrs by Western blot method; type: functional, cell-based
[47] = tested on: L1210; test: Induction of apoptosis in mouse L1210 cells assessed as Bax level at 0.5 to 1 uM preincubated for 1 hr followed by 1.05 J/cm2 UV-A irradiation measured after 4 to 6 hrs by Western blot method; type: functional, cell-based
[48] = Octanol-water partition coefficient, logP of the compound; type: physicochemical
[49] = tested on: L1210; test: Induction of apoptosis in mouse L1210 cells assessed as caspase 9 activation at 0.5 uM preincubated for 1 hr measured after 8 hrs by Western blot method in absence of light; type: cell-based; conditions: l1210, 8 h
[50] = tested on: L1210; test: Induction of apoptosis in mouse L1210 cells assessed as decrease in Bcl2 level at 0.5 to 1 uM preincubated for 1 hr followed by 1.05 J/cm2 UV-A irradiation measured after 4 to 6 hrs by Western blot method; type: functional, cell-based
[51] = Cytotoxicity against human HL60/ADR cells after 48 hrs by MTT assay; type: functional, cell-based
[52] = tested on: L1210; test: Phototoxicity against mouse L1210 cells assessed as cell viability preincubated with 0.5 nM bafilomycin A1 followed by compound exposure for 1 hr followed by 1.05 J/cm2 UV-A irradiation measured after 48 hrs by MTT assay in presence of pepstatin A; type: functional, cell-based
[53] = tested on: L1210; test: Phototoxicity against mouse L1210 cells assessed as cell viability preincubated for 1 hr followed by 1.05 J/cm2 UV-A irradiation measured after 48 hrs by MTT assay in presence of 3-methyladenine; type: functional, cell-based
[54] = tested on: Calf thymus DNA; test: Binding affinity to calf thymus DNA by UV-visible spectrophotometry; type: nucleic-acid assay; conditions: Bos taurus

CCCNC(=S)Nc1ccc2cc3ccc(NC(=S)NCCC)cc3nc2c1.Cl
Activity [1]: 24%
Drug uptake [2]: Not Active
Activity [3]: 25.9%
Drug uptake [4]: Not Active
Activity [5]: Non-toxic
Activity [6]: inactive
Activity [7]: 95%
Activity [8]: Active
Activity [9]: 47.9%
Activity [10]: Active
Activity [11]: 32.5%
Activity [12]: Non-toxic
Drug uptake [13]: Active
Activity [14]: Active
Activity [15]: Non-toxic
Drug uptake [16]: 53%
Activity [17]: 22.5%
IC50 at 48 h [18]: 43.5 µM
Activity [19]: Active
Activity [20]: 21.1%
Activity [21]: 30%
Drug uptake [22]: Active
IC50 [23]: 7.2 µM
Activity [24]: Active
Drug uptake [25]: Active
Drug uptake [26]: Not Active
IC50 at 48 h [27]: 5.7 µM
IC50 [28]: 0.48 µM
Activity [29]: 17.7%
Activity [30]: inactive
Activity [31]: Non-toxic
Activity [32]: 17.2%
Activity [33]: Non-toxic
Activity [34]: inactive
Activity [35]: Active
Activity [36]: 24%
Activity [37]: inactive
Activity [38]: Non-toxic
Activity [39]: 43.2%
Activity [40]: Active
Activity [41]: Active
Activity [42]: Active
Activity [43]: Active
IC50 [44]: 4.4 µM
Drug uptake [45]: Not Active
Activity [46]: inactive
Activity [47]: inactive
logP [48]: 1.28
Activity [49]: Non-toxic
Activity [50]: Active
IC50 [51]: 7.2 µM
Activity [52]: inactive
Activity [53]: inactive
K [54]: 6.8 ×10⁵ /M
